Test results as given in patent US20130095493A1, “IDENTIFICATION OF THE GENE NOTCH3 AS A NOVEL BIOMARKER FOR HUMAN METASTATIC MELANOMA” (THE JOHNS HOPKINS UNIVERSITY, priority 2011, published 2013).
“Also recorded” adds a separate entry of the source.

Tests used:
Format in all cases: cell-based, human
[1] = system: RFP-HUVEC networking phenotype in GFP-1205Lu:RFP-HUVEC co-culture; test: Melanoma-endothelial co-culture networking phenotype; conditions: 10 μM DAPT vs 0.1% DMSO; 1:1 GFP-1205Lu:RFP-HUVEC co-culture
Protocol: For co-culture experiments, various GFP-labeled melanoma cell lines were co-cultured with RFP-HUVEC at a 1:1 ratio to 95% confluency in EGM-2. Melanoma cells grown alone were cultured in EGM-2 to control for medium effects. Cells were co-cultured for 48 hours before sorting by FACS into pure populations. The sorted cell populations were divided and stored at −80° C. for mRNA and protein analysis.
(§1) In previous investigations, we observed RFP-HUVEC communicating in a concerted fashion with metastatic melanoma cells to create a networking phenotype during 48 hrs of co-culture. It was thought that understanding the molecular determinants of this communication could lead to pharmacological targets for the prevention of melanoma-endothelial crosstalk in the clinical setting. To determine whether Notch signaling is involved in mediating the networking phenotype, GFP-1205Lu and RFP-HUVEC were co-cultured in 0.1% DMSO (vehicle) or 10 μM DAPT. These cells were also cultured alone in identical media to determine whether these conditions elicited any aberrant growth not attributable to co-culture.

[2] = system: GFP-1205Lu or RFP-HUVEC grown alone; test: Growth of cells cultured alone under DAPT; conditions: 10 μM DAPT vs 0.1% DMSO
Source text: as §1

[3] = system: Notch signaling (4XCBF-1 Notch luciferase reporter in GFP-1205Lu co-cultured with RFP-HUVEC); test: Notch luciferase reporter co-culture (dual-luciferase assay)
Protocol: GFP-1205Lu was transfected using Lipofectamine 2000 with 4XCBF-1 Notch luciferase reporter (kindly provided by Dr. Diane Hayward, Johns Hopkins University) and Renilla control plasmid (2 μg total cDNA/well). Cells were transfected for 4 hr, then harvested by trypsinization and co-cultured with RFP-HUVEC at varying ratios for 24 hr in EGM-2. Cells were washed with PBS, snap-frozen, and stored at −80° C. Co-cultures were lysed using the Dual-Luciferase Reporter Assay System (Promega) and analyzed on a 1450 Microbeta plate reader (Perkin Elmer). The specificity of Notch signaling was verified using the pan-Notch inhibitor DAPT and 0.1% DMSO as a vehicle control.
The transcriptional activity of Notch is mediated by the CBF-1 promoter sequence upstream of target genes. CBF-1 recruits CSL transcriptional repressors which inactivate gene expression in the absence of NICD. […] Thus, by utilizing a four-tandem repeat of CBF-1 to drive luciferase expression during a transient transfection, canonical Notch signaling can be directly quantified by chemiluminescence activity in a target cell population. […]
To quantify Notch signaling within the model system, GFP-1205Lu was transiently transfected with 4XCBF-1 Notch luciferase reporter (PJH23A) and co-cultured with RFP-HUVEC for 24 hours. […]

Structure (SMILES): C[C@H](NC(=O)Cc1cc(F)cc(F)c1)C(=O)N[C@H](C(=O)OC(C)(C)C)c1ccccc1 [DAPT]
- Effect on RFP-HUVEC networking phenotype in co-culture [1]: drastically affected; also recorded: RFP-HUVEC network disruption
- Effect on growth of GFP-1205Lu or RFP-HUVEC grown alone [2]: little effect; also recorded: no discernable difference
- Inhibition of quantified Notch signaling ([3]; 10 μM DAPT vs 0.1% DMSO vehicle): effectively inhibiting all quantified Notch signaling
- Effect on co-culture stimulated Notch signaling (luciferase reporter) ([3]; GFP-1205Lu with 4XCBF-1 reporter, RFP-HUVEC co-culture 24 hours, DMSO vehicle had no effect): completely abrogated the co-culture stimulated Notch signaling; also recorded: completely abrogated all Notch signaling observed
